Reference: patent US11312727B1, “Macrocyclic flu endonuclease inhibitors” (Janssen BioPharma, Inc., priority 2018, dated 2022)

Assays:
[1] = test system: Influenza strain A549 A/WSN/33 (H1N1); test: microbe, parasite or virus in culture; format: cell-based; settings: Influenza A virus, A549, 20 h, A549 cells, influenza A/WSN/33 (H1N1), 20 hours incubation; read-out: A549_A(H1N1) EC50
in vitro = settings: human, CC50, uninfected A549 cells, CellTiter-Glo

| SMILES | EC50 [1] | CC50 (in vitro) |
| --- | --- | --- |
| O=C1c2c(O)c(=O)ccn2N2CN1CCOC/C=C\c1cccc3c1[C@@H]2c1ccccc1CC3 (single isomer, unassigned) [Compound 83B, (13Z,23b*S)-6-hydroxy-9,10,12,18,19,23b-hexahydro-1,8-methanobenzo[4,5]cyclohepta[1,2,3-qr]pyrido[1,2-c][9,2,3,6]benzoxatriazacyclotetradecine-5,7-dione] | 6 nM | > 200 nM |
| O=C1c2c(O)c(=O)ccn2N2CN1CCC=CCOc1c(F)cccc1[C@@H]2c1ccccc1 (single isomer, unassigned) [Compound 84B, (19*S, E/Z)-4-fluoro-13-hydroxy-19-phenyl-9,10-dihydro-6H,19H-11,18-methanopyrido[2,1-i][1,7,10,11]benzoxatriazacyclotetradecine-12,14-dione] | 5 nM | > 200 nM |
| CC[C@H]1/C=C/COc2c(F)cccc2[C@@H](c2ccccc2)N2CN1C(=O)c1c(O)c(=O)ccn12 (single isomer, unassigned) [Compound 85AA, (9*S,18*R,E)-9-ethyl-4-fluoro-12-hydroxy-18-phenyl-6,9-dihydro-18H-10,17-methanobenzo[b]pyrido[1,2-f][1]oxa[5,6,9]triazacyclotridecine-11,13-dione] | 3 nM | > 200 nM |
| CC[C@@H]1/C=C/COc2c(F)cccc2[C@@H](c2ccccc2)N2CN1C(=O)c1c(O)c(=O)ccn12 (single isomer, unassigned) [Compound 85AB, (9*R,18*R,E)-9-ethyl-4-fluoro-12-hydroxy-18-phenyl-6,9-dihydro-18H-10,17-methanobenzo[b]pyrido[1,2-f][1]oxa[5,6,9]triazacyclotridecine-11,13-dione] | 2 nM | > 200 nM |
| CC[C@H]1/C=C/COc2c(F)cccc2[C@H](c2ccccc2)N2CN1C(=O)c1c(O)c(=O)ccn12 (single isomer, unassigned) [Compound 85BA, (9*S,18*S,E)-9-ethyl-4-fluoro-12-hydroxy-18-phenyl-6,9-dihydro-18H-10,17-methanobenzo[b]pyrido[1,2-f][1]oxa[5,6,9]triazacyclotridecine-11,13-dione] | > 500 nM | > 1000 nM |
| O=C1c2c(O)c(=O)ccn2N2CN1CCCC/C=C\c1cccc3c1[C@@H]2c1ccccc1CC3 (single isomer, unassigned) [Compound 86B, (13*Z,23b*R)-6-hydroxy-10,11,12,18,19,23b-hexahydro-9H-1,8-methanobenzo[4,5]cyclohepta[1,2,3-qr]pyrido[1,2-c][2,3,6]benzotriazacyclotetradecine-5,7-dione] | 27 nM | > 2000 nM |
| O=C1c2c(O)c(=O)ccn2N2CN1CC/C=C\COc1cc(F)c(F)c3c1[C@@H]2c1ccccc1SC3 (single isomer, unassigned) [Compound 88A, (23b*R, Z)-16,17-difluoro-6-hydroxy-10,13,18,23b-tetrahydro-9H-1,8-methano[1]benzothiepino[5,4,3-lm]pyrido[2,1-i][1,7,10,11]benzoxatriazacyclotetradecine-5,7-dione] | > 500 nM | > 1000 nM |
| O=C1c2c(O)c(=O)ccn2N2CN1CC/C=C\COc1cc(F)c(F)c3c1[C@H]2c1ccccc1SC3 (single isomer, unassigned) [Compound 88B, (23b*S, Z)-16,17-difluoro-6-hydroxy-10,13,18,23b-tetrahydro-9H-1,8-methano[1]benzothiepino[5,4,3-1m]pyrido[2,1-i][1,7,10,11]benzoxatriazacyclotetradecine-5,7-dione] | 1 nM | > 200 nM |
| O=C1c2c(O)c(=O)ccn2N2CN1CC/C=C/COc1cc(F)c(F)c3c1[C@@H]2c1ccccc1SC3 (single isomer, unassigned) [Compound 88C, (23b*R, E)-16,17-difluoro-6-hydroxy-10,13,18,23b-tetrahydro-9H-1,8-methano[1]benzothiepino[5,4,3-lm]pyrido[2,1-i][1,7,10,11]benzoxatriazacyclotetradecine-5,7-dione] | > 500 nM | > 1000 nM |
| O=C1c2c(O)c(=O)ccn2N2CN1CC/C=C/COc1cc(F)c(F)c3c1[C@H]2c1ccccc1SC3 (single isomer, unassigned) [Compound 88D, (23b*S, E)-16,17-difluoro-6-hydroxy-10,13,18,23b-tetrahydro-9H-1,8-methano[1]benzothiepino[5,4,3-lm]pyrido[2,1-i][1,7,10,11]benzoxatriazacyclotetradecine-5,7-dione] | 1 nM | > 100 nM |
| CC[C@H]1/C=C/COc2cc(F)ccc2[C@@H](c2ccccc2)N2CN1C(=O)c1c(O)c(=O)ccn12 (single isomer, unassigned) [Compound 89AA, (9*S,18*R,E)-9-ethyl-3-fluoro-12-hydroxy-18-phenyl-6,9-dihydro-18H-10,17-methanobenzo[b]pyrido[1,2-f][1]oxa[5,6,9]triazacyclotridecine-11,13-dione] | 10800 nM | 39300 nM |
| CC[C@@H]1/C=C/COc2cc(F)ccc2[C@H](c2ccccc2)N2CN1C(=O)c1c(O)c(=O)ccn12 (single isomer, unassigned) [Compound 89BB, (9*R,18*S,E)-9-ethyl-3-fluoro-12-hydroxy-18-phenyl-6,9-dihydro-18H-10,17-methanobenzo[b]pyrido[1,2-f][1]oxa[5,6,9]triazacyclotridecine-11,13-dione] | 3 nM | > 200 nM |
| C[C@@H]1N2C/C=C/COc3c(F)cccc3[C@@H](c3ccccc3)N1n1ccc(=O)c(O)c1C2=O (single isomer, unassigned) [Compound 91A, (18*R,19*R,E)-4-fluoro-12-hydroxy-19-methyl-18-phenyl-6,9-dihydro-18H-10,17-methanobenzo[b]pyrido[1,2-f][1]oxa[5,6,9]triazacyclotridecine-11,13-dione] | 3 nM | > 1000 nM |
| C[C@H]1N2C/C=C/COc3c(F)cccc3[C@H](c3ccccc3)N1n1ccc(=O)c(O)c1C2=O (single isomer, unassigned) [Compound 91B, (18*S,19*S,E)-4-fluoro-12-hydroxy-19-methyl-18-phenyl-6,9-dihydro-18H-10,17-methanobenzo[b]pyrido[1,2-f][1]oxa[5,6,9]triazacyclotridecine-11,13-dione] | > 500 nM | > 1000 nM |
| O=C1c2c(O)c(=O)ccn2N2CN1CC/C=C\COc1ccc(F)c3c1[C@@H]2c1ccccc1SC3 (single isomer, unassigned) [Compound 93A, (1*R,13Z)-20-fluoro-7-hydroxy-16-oxa-23-thia-2,3,10-triazahexacyclo[15.12.1.12,10.03,8.021,30.024,29]hentriaconta-4,7,13,17,19,21(30),24(29),25,27-nonaene-6] | > 500 nM | > 1000 nM |
| O=C1c2c(O)c(=O)ccn2N2CN1CC/C=C\COc1ccc(F)c3c1[C@H]2c1ccccc1SC3 (single isomer, unassigned) [Compound 93B, (1*SR,13Z)-20-fluoro-7-hydroxy-16-oxa-23-thia-2,3,10-triazahexacyclo[15.12.1.12,10.03,8.021,30.024,29]hentriaconta-4,7,13,17,19,21(30),24(29),25,27-nonaene-6] | 2.2 nM | > 200 nM |
| O=C1c2c(O)c(=O)ccn2N2CN1C/C=C\COc1cc(C(F)F)ccc1[C@@H]2c1ccccc1 (single isomer, unassigned) [Compound 94A, (18*S,Z)-3-(difluoromethyl)-12-hydroxy-18-phenyl-6,9-dihydro-18H-10,17-methanobenzo[b]pyrido[1,2-f][1]oxa[5,6,9]triazacyclotridecine-11,13-dione] | 25.7 nM | > 1000 nM |
| O=C1c2c(O)c(=O)ccn2N2CN1C/C=C\COc1cc(C(F)F)ccc1[C@H]2c1ccccc1 (single isomer, unassigned) [Compound 94B, (18*R,Z)-3-(difluoromethyl)-12-hydroxy-18-phenyl-6,9-dihydro-18H-10,17-methanobenzo[b]pyrido[1,2-f][1]oxa[5,6,9]triazacyclotridecine-11,13-dione] | > 500 nM | > 1000 nM |
| O=C1c2c(O)c(=O)ccn2N2CN1C1(/C=C/COc3c(F)cccc3[C@@H]2c2ccccc2)CC1 (single isomer, unassigned) [Compound 95A, (18′*S,E)-4′-fluoro-12′-hydroxy-18′-phenyl-6′H,18′H-spiro[cyclopropane-1,9′-[10,17]methanobenzo[b]pyrido[1,2-f][1]oxa[5,6,9]triazacyclotridecine]-11′,13′-dione] | > 500 nM | > 1000 nM |
| O=C1c2c(O)c(=O)ccn2N2CN1C1(/C=C/COc3c(F)cccc3[C@H]2c2ccccc2)CC1 (single isomer, unassigned) [Compound 95B, (18′*R,E)-4′-fluoro-12′-hydroxy-18′-phenyl-6′H,18′H-spiro[cyclopropane-1,9′-[10,17]methanobenzo[b]pyrido[1,2-f][1]oxa[5,6,9]triazacyclotridecine]-11′,13′-dione] | 1.7 nM | > 1000 nM |
| O=C1c2c(O)c(=O)ccn2N2CN1C1(/C=C/COc3c(Cl)cccc3[C@H]2c2ccccc2)CC1 (single isomer, unassigned) [Compound 96A, (18′*R,E)-4′-chloro-12′-hydroxy-18′-phenyl-6′H,18′H-spiro[cyclopropane-1,9′-[10,17]methanobenzo[b]pyrido[1,2-f][1]oxa[5,6,9]triazacyclotridecine]-11′,13′-dione] | 1.9 nM | > 200 nM |
| O=C1c2c(O)c(=O)ccn2N2CN1C1(/C=C/COc3c(Cl)cccc3[C@@H]2c2ccccc2)CC1 (single isomer, unassigned) [Compound 96B] | > 500 nM | > 1000 nM |
| CC[C@@H]1/C=C/COc2cc(Cl)ccc2[C@@H](c2ccccc2)N2CN1C(=O)c1c(O)c(=O)ccn12 (single isomer, unassigned) [Compound 97AA] | 5.8 nM | > 1000 nM |
| CC[C@H]1/C=C/COc2cc(Cl)ccc2[C@@H](c2ccccc2)N2CN1C(=O)c1c(O)c(=O)ccn12 (single isomer, unassigned) [Compound 97AB] | 5.6 nM | > 1000 nM |
